Test results published in patent US20050171192A1, “Use of histamine to treat bone disease” (priority 2003, published 2005).
Where two headings read alike, the source gives them in different places.

Columns and labels:
[1] = oral 50 mg, 100 mg, 200 mg, 1,000 mg; relative to placebo group
Description: Individual suffering from various types of osteoporosis, including type I and type II osteoporosis, age-related osteoporosis, disuse osteoporosis, diabetes-related osteoporosis, and steroid-related osteoporosis, are identified. The individuals are separated into 5 groups of 20 individuals. Individuals in Groups 1 through 4 are orally administered 50 mg, 100 mg, 200 mg, and 1,000 mg of histamine, respectively. Individuals in […] are administered a placebo. The rate of bone loss is reduced for Groups 1 through 4 relative to the rate of bone loss for the placebo group.

[2] = oral 125 mg; versus placebo
Description: Individuals suffering from bone loss associated with primary and secondary hyperparathyroidism are identified. The individuals are orally administered 125 mg of histamine or a placebo.

[3] = Example 1: inhibition of bone resorption in subjects with bone loss; format: in vivo; settings: effective dose; Groups 1 through 10 compared to placebo Group 11
Description: Subjects suffering from bone loss exacerbated by osteoclast-produced ROS are identified. The subjects are separated into 11 groups of 10 subjects each. […] Subjects in Group 11 are administered a placebo.

[4] = Example 7: bone loss associated with cancer treatments (hormone therapy); format: in vivo; settings: oral 100 mg in conjunction with hormone therapy; compared to placebo group
Description: Individuals suffering from cancer and being treated with hormone therapy are identified. The individuals are divided into 11 groups of 10 each. In conjunction with hormone therapy, Groups 1 through 10 are orally administered 100 mg of histamine, histamine agonists, histamine salts, histamine prodrugs, NADPH-oxidase inhibitors, histamine dihydrochloride, histamine phosphate, serotonin, 5HT agonists, or histamine receptor agonists, respectively. Group 11 receives a placebo in conjunction with hormone therapy.

[5] = oral 75 mg in conjunction with antibiotics; versus antibiotics alone
Description: Individuals suffering from osteomyelitis are identified. The individuals are orally administered 75 mg of histamine phosphate in conjunction with antibiotics or antibiotics alone.

[6] = intravenous 5 mg in conjunction with steroid therapy; compared to steroid therapy alone
Description: Individuals suffering from bone loss associated with steroid therapy, including treatment with corticosteroids, such as betamethasone, budesonide, cortisone dexamethasone, hydrocortisone, methylprednisolone, prednisolone, prednisone, and triamcinolone, are identified. In conjunction with steroid therapy, the individuals are intravenously administered 5 mg of a ROS scavenger or a placebo.

[7] = molecular target: membrane bound oxidase of stimulated phagocytes (Homo sapiens, UniProt P04839); settings: substrate of the membrane bound oxidase; generally accepted (background); cited from earlier work

SMILES	rate of bone loss [1]	rate of bone loss [2]	trauma to bone cells [2]	rate of bone healing [3]	rate of bone loss [3]	bone healing [4]	bone loss [4]	bone healing [5]	bone loss [6]	Km [7] [µM]
NCCc1c[nH]cn1 [histamine]	reduced	reduced	minimized	accelerated	reduced	accelerated	inhibited	–	–	–
NCCc1c[nH]cn1.O=P(O)(O)O [histamine phosphate]	–	–	–	accelerated	reduced	accelerated	inhibited	accelereated	–	–
NCCc1c[nH]c2ccc(O)cc12 [serotonin]	–	–	–	accelerated	reduced	accelerated	inhibited	–	–	–
Cl.Cl.NCCc1c[nH]cn1 [histamine dihydrochloride]	–	–	–	accelerated	reduced	accelerated	inhibited	–	reduced	–
NC(=O)C1=CN([C@@H]2O[C@H](COP(=O)(O)OP(=O)(O)OC[C@H]3O[C@@H](n4cnc5c(N)ncnc54)[C@H](O)[C@@H]3O)[C@@H](O)[C@H]2O)C=CC1 [NADH]	–	–	–	–	–	–	–	–	–	450
NC(=O)C1=CN([C@@H]2O[C@H](COP(=O)(O)OP(=O)(O)OC[C@H]3O[C@@H](n4cnc5c(N)ncnc54)[C@H](OP(=O)(O)O)[C@@H]3O)[C@@H](O)[C@H]2O)C=CC1 [NADPH]	–	–	–	–	–	–	–	–	–	45
